Assays:
PI3K = PI3K (Homo sapiens, UniProt P42336); assay: Fluorescence polarization assay for PI3K; type: biochemical; details: PI3Kα; read-out: PI3Kα IC50;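 also: PI3K kinase reaction on PIP2 with ATP, 30-60 min, product sensed by GST-GRP with red probe in fluorescence polarization (mP), controls without enzyme and at zero time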
breast line MDA468 = assay: In vitro cell culture growth assay (MTS), MDA468; type: cell-based, human; details: MDA468 cells, three days after drug treatment
Summary of the method: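 Steps: plate cells; add inhibitors the next day; incubate 3 days; add MTS dye, which viable cells convert metabolically; measure absorbance at 490 nm; calculate percent of control growth relative to vehicle-treated cells in the same plate.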

prostate line LNCap = assay: In vitro cell culture growth assay (MTS), LNCap; type: cell-based, human; details: LNCap cells, three days after drug treatment;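 also: viable cell density read by absorbance at 490 nm, growth expressed as percent of vehicle-treated cells on the same plate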

PI3K, sequence (P42336 whole entry): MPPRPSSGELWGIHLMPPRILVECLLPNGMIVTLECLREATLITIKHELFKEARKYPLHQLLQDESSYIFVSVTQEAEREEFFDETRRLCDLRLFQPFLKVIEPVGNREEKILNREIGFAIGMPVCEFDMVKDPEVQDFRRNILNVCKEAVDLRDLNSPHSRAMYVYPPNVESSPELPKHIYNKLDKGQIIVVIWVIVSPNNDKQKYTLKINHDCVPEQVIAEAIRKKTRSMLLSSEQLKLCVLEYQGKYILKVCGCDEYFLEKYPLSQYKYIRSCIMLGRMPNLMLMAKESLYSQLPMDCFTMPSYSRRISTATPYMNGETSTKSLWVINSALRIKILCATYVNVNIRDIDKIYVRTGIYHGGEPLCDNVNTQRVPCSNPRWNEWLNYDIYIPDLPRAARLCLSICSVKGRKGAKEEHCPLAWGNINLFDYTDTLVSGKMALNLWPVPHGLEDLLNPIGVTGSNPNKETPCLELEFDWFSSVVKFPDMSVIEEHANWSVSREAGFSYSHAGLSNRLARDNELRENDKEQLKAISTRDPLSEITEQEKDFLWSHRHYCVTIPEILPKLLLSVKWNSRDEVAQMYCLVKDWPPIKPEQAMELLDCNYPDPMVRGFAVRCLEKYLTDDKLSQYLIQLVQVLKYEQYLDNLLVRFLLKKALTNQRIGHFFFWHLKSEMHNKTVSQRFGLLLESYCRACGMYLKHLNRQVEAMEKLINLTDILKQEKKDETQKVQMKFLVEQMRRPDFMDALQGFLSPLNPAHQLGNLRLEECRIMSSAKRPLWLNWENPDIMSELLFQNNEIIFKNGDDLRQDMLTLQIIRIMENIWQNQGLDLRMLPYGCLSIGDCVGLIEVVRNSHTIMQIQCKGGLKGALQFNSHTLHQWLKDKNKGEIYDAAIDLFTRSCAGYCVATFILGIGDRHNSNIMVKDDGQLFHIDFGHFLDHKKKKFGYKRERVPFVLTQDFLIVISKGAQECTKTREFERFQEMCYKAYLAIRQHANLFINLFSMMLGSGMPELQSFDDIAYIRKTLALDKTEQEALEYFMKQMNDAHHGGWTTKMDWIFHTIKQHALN
PI3K, sequence (P27986 whole entry partner): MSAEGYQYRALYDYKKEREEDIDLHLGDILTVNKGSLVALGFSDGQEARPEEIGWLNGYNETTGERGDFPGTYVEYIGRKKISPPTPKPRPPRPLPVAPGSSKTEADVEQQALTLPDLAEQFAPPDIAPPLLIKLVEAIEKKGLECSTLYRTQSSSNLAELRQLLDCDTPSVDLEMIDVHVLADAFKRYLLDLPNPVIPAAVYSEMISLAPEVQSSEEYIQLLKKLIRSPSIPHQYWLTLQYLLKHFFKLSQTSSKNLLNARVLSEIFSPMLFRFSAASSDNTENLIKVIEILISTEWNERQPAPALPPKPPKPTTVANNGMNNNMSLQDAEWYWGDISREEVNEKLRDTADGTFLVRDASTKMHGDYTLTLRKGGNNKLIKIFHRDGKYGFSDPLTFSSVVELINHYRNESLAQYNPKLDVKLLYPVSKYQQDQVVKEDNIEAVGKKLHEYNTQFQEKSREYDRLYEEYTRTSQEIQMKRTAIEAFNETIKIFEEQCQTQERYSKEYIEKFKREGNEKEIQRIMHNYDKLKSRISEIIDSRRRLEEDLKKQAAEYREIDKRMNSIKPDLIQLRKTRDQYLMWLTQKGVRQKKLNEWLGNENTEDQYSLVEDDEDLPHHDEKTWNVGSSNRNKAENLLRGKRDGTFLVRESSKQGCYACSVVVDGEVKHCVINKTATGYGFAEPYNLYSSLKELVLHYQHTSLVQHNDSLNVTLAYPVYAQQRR

| Structure (SMILES) | IC50 (PI3K) | IC50 (breast line MDA468; Homo sapiens, 72 h) | IC50 (prostate line LNCap; Homo sapiens, LNCaP, 72 h) | IC50 (breast line MDA468) | IC50 (prostate line LNCap) |
| --- | --- | --- | --- | --- | --- |
| CNC(=O)Nc1ccc(-c2nc(N3CCOCC3)c3cnn(C4CCC(O)CC4)c3n2)cc1 (stereo not drawn) [Compound 568, 1-{4-[1-(4-hydroxycyclohexyl)-4-morpholin-4-yl-1H-pyrazolo[3,4-d]pyrimidin-6-yl]phenyl}-3-methylurea] | 0.039 µM | 0.24 µM | 0.054 µM | – | – |
| Oc1cccc(-c2nc(N3CCOCC3)c3cnn(C4CCCCC4)c3n2)c1 [Example 91, 3-(1-cyclohexyl-4-morpholin-4-yl-1H-pyrazolo[3,4-d]pyrimidin-6-yl)phenol] | 0.035 µM | 2.5 µM | 0.41 µM | – | – |
| CCOC(=O)N1CCC(n2ncc3c(N4CCOC[C@@H]4C)nc(-c4ccc(NC(=O)NCCF)cc4)nc32)CC1 [Compound 895, ethyl 4-{6-(4-{[(2-fluoroethyl)carbamoyl]amino}phenyl)-4-[(3S)-3-methylmorpholin-4-yl]-1H-pyrazolo[3,4-d]pyrimidin-1-yl}piperidine-1-carboxylate] | 0.521 µM | 0.95 µM | 0.1 µM | – | – |
| O=C(Nc1ccncc1)Nc1ccc(-c2nc(N3CCOCC3)c3cnn(C4CCN(Cc5cccnc5)CC4)c3n2)cc1 [Compound 587, 1-(4-{4-morpholin-4-yl-1-[1-(pyridin-3-ylmethyl)piperidin-4-yl]-1H-pyrazolo[3,4-d]pyrimidin-6-yl}phenyl)-3-pyridin-4-ylurea] | 0.012 µM | 0.12 µM | 0.028 µM | – | – |
| CNC(=O)Nc1ccc(-c2nc(N3CCOC(C)C3)c3cnn(C4CCN(C(=O)OC)CC4)c3n2)cc1 (stereo not drawn) [Compound 841, methyl 4-[6-{4-[(methylcarbamoyl)amino]phenyl}-4-(2-methylmorpholin-4-yl)-1H-pyrazolo[3,4-d]pyrimidin-1-yl]piperidine-1-carboxylate] | 0.268 µM | 0.5 µM | 0.15 µM | – | – |
| FC(F)(F)CN1CCC(n2ncc3c(N4CCOCC4)nc(-c4ccc5[nH]ccc5c4)nc32)CC1 [Compound 471, 6-(1H-indol-5-yl)-4-morpholin-4-yl-1-[1-(2,2,2-trifluoroethyl)piperidin-4-yl]-1H-pyrazolo[3,4-d]pyrimidine] | 2.88 µM | 7.8 µM | 4 µM | – | – |
| COC(=O)Nc1ccc(-c2nc(N3CCOCC3)c3cnn(C4CCN(C(=O)C(C)C)CC4)c3n2)cc1 [Compound 810, methyl {4-[1-(1-isobutyrylpiperidin-4-yl)-4-morpholin-4-yl-1H-pyrazolo[3,4-d]pyrimidin-6-yl]phenyl}carbamate] | 2.23 µM | 3 µM | 1.3 µM | – | – |
| c1cc2cc(-c3nc(N4CCOCC4)c4cnn(C5CCCCO5)c4n3)ccc2[nH]1 (stereo not drawn) [Compound 237, 6-(1H-indol-5-yl)-4-morpholin-4-yl-1-(tetrahydro-2H-pyran-2-yl)-1H-pyrazolo[3,4-d]pyrimidine] | 2.42 µM | 1 µM | 4.2 µM | – | – |
| O=C(O)CCC(=O)Nc1ccc(-c2nc(N3CCOCC3)c3cnn(-c4ccccc4)c3n2)cc1 [Compound 109] | 0.248 µM | 30 µM | 45 µM | – | – |
| CCOC(=O)N1CCC(n2ncc3c(N4CCOCC4)nc(-c4ccc(NC(=O)NCCF)cc4)nc32)CC1 [Compound 819, ethyl 4-[6-(4-{[(2-fluoroethyl)carbamoyl]amino}phenyl)-4-morpholin-4-yl-1H-pyrazolo[3,4-d]pyrimidin-1-yl]piperidine-1-carboxylate] | 0.794 µM | 0.07 µM | < 0.027 µM | – | – |
| O=C(Nc1ccc(-c2nc(N3CCOCC3)c3cnn(C4CCN(Cc5cccnc5)CC4)c3n2)cc1)Nc1ccsc1 [Compound 620, 1-(4-{4-morpholin-4-yl-1-[1-(pyridin-3-ylmethyl)piperidin-4-yl]-1H-pyrazolo[3,4-d]pyrimidin-6-yl}phenyl)-3-(3-thienyl)urea] | 0.01 µM | 0.13 µM | 0.034 µM | – | – |
| CCNC(=O)Nc1ccc(-c2nc(N3CCOCC3)c3cnn(C4CCNCC4)c3n2)cc1 [Compound 773] | 0.306 µM | 0.39 µM | 0.62 µM | – | – |
| CCNC(=O)Nc1ccc(-c2nc(N3CCOCC3)c3cnn(C4CCN(CCCCO)CC4)c3n2)cc1 [Compound 745, 1-ethyl-3-(4-{1-[1-(4-hydroxybutyl)piperidin-4-yl]-4-morpholin-4-yl-1H-pyrazolo[3,4-d]pyrimidin-6-yl}phenyl)urea] | 0.55 µM | 2.9 µM | 1.3 µM | – | – |
| CNC(=O)Nc1ccc(-c2nc(N3CCOCC3)c3cnn(C4CCN(Cc5cccc(O)c5)CC4)c3n2)cc1 [Example 397, 1-(4-{1-[1-(3-hydroxybenzyl)piperidin-4-yl]-4-morpholin-4-yl-1H-pyrazolo[3,4-d]pyrimidin-6-yl}phenyl)-3-methylurea] | 0.028 µM | 0.4 µM | 0.14 µM | – | – |
| Nc1ncc(-c2nc(N3CCOCC3)c3cnn(C4CCN(Cc5cccnc5)CC4)c3n2)cn1 [Compound 211] | 0.023 µM | 0.8 µM | 0.17 µM | – | – |
| CNC(=O)Nc1ccc(-c2nc(N3CCOCC3)c3cnn(C4CCN(C(=O)c5cccc(C(F)(F)F)c5)CC4)c3n2)cc1 [Example 359, 1-methyl-3-[4-(4-morpholin-4-yl-1-{1-[3-(trifluoromethyl)benzoyl]piperidin-4-yl}-1H-pyrazolo[3,4-d]pyrimidin-6-yl)phenyl]urea] | 0.076 µM | 0.2 µM | 0.045 µM | – | – |
| c1ccc(CCN2CCC(n3ncc4c(N5CCOCC5)nc(-c5ccc6[nH]ccc6c5)nc43)CC2)cc1 [Compound 489, 6-(1H-indol-5-yl)-4-morpholin-4-yl-1-[1-(2-phenylethyl)piperidin-4-yl]-1H-pyrazolo[3,4-d]pyrimidine] | 3.09 µM | 3.1 µM | 0.78 µM | – | – |
| CCOC(=O)N1CCC(n2ncc3c(N4CCOCC4)nc(-c4ccc(NC(=O)OC)cc4)nc32)CC1 [Compound 805, ethyl 4-(6-{4-[(methoxycarbonyl)amino]phenyl}-4-morpholin-4-yl-1H-pyrazolo[3,4-d]pyrimidin-1-yl)piperidine-1-carboxylate] | 2.67 µM | 0.8 µM | 0.51 µM | – | – |
| O=C(NCC(F)(F)F)Nc1ccc(-c2nc(N3CCOCC3)c3cnn(C4CCN(Cc5ccccc5)CC4)c3n2)cc1 [Example 289, 1-{4-[1-(1-benzylpiperidin-4-yl)-4-morpholin-4-yl-1H-pyrazolo[3,4-d]pyrimidin-6-yl]phenyl}-3-(2,2,2-trifluoroethyl)urea] | 0.59 µM | 1.3 µM | 0.32 µM | – | – |
| CNC(=O)Nc1ccc(-c2nc(N3CCOCC3)c3cnn(C4CCC(O)CC4)c3n2)cc1 (stereo not drawn) [Example 323, 1-{4-[1-(4-hydroxycyclohexyl)-4-morpholin-4-yl-1H-pyrazolo[3,4-d]pyrimidin-6-yl]phenyl}-3-methylurea] | 0.039 µM | 0.2 µM | 0.054 µM | – | – |
| CC(=O)Nc1ccc(-c2nc(N3CCOCC3)c3cn[nH]c3n2)cc1 [Compound 926, N-[4-(4-morpholin-4-yl-1H-pyrazolo[3,4-d]pyrimidin-6-yl)phenyl]acetamide] | 0.442 µM | – | – | 8.5 µM | 3.7 µM |
| O=C(N1CCCC1)N1CCC(n2ncc3c(N4CCOCC4)nc(-c4ccc5[nH]ccc5c4)nc32)CC1 [Compound 123] | 1.3 µM | 1.8 µM | 0.45 µM | – | – |
| O=C(Nc1ccc(-c2nc(N3CCOCC3)c3cnn(C4CCN(Cc5cccnc5)CC4)c3n2)cc1)Nc1cccnc1 [Compound 559, 1-(4-{4-morpholin-4-yl-1-[1-(pyridin-3-ylmethyl)piperidin-4-yl]-1H-pyrazolo[3,4-d]pyrimidin-6-yl}phenyl)-3-pyridin-3-ylurea] | 0.02 µM | < 0.027 µM | < 0.027 µM | – | – |
| CCNC(=O)Nc1ccc(-c2nc(N3CCOCC3)c3cnn(C4CCN(C(=O)c5cccnc5)CC4)c3n2)c(F)c1 [Example 462, 1-ethyl-3-(3-fluoro-4-{4-morpholin-4-yl-1-[1-(pyridin-3-ylcarbonyl)piperidin-4-yl]-1H-pyrazolo[3,4-d]pyrimidin-6-yl}phenyl)urea] | 1.61 µM | 0.9 µM | 0.9 µM | – | – |
| c1cc2cc(-c3nc(N4CCOCC4)c4cnn(C5CCCCC5)c4n3)ccc2[nH]1 [Example 90, 1-cyclohexyl-6-(1H-indol-5-yl)-4-morpholin-4-yl-1H-pyrazolo[3,4-d]pyrimidine] | 0.918 µM | 3.2 µM | 1.2 µM | – | – |
| CNC(=O)Nc1ccc(-c2nc(N3CCOCC3)c3cnn(C4CCN(C(=O)OCCBr)CC4)c3n2)cc1 [Compound 804, 2-bromoethyl 4-(6-{4-[(methylcarbamoyl)amino]phenyl}-4-morpholin-4-yl-1H-pyrazolo[3,4-d]pyrimidin-1-yl)piperidine-1-carboxylate] | 0.14 µM | 0.8 µM | 0.7 µM | – | – |
| CN(C)CC(=O)N1CCC(n2ncc3c(N4CCOCC4)nc(-c4ccc5[nH]ccc5c4)nc32)CC1 [Compound 94] | 1.46 µM | 4.2 µM | 1.9 µM | – | – |
| CNC(=O)Nc1ccc(-c2nc(N3CCOCC3)c3cnn(C4CCN(Cc5ccc(Br)nc5)CC4)c3n2)cc1 [Compound 634, 1-[4-(1-{1-[(6-bromopyridin-3-yl)methyl]piperidin-4-yl}-4-morpholin-4-yl-1H-pyrazolo[3,4-d]pyrimidin-6-yl)phenyl]-3-methylurea] | 0.03 µM | – | – | 0.08 µM | 0.027 µM |
| CNC(=O)Nc1ccc(-c2nc(N3CCOCC3)c3cnn(CC(F)(F)F)c3n2)cc1 [Compound 729, 1-methyl-3-{4-[4-morpholin-4-yl-1-(2,2,2-trifluoroethyl)-1H-pyrazolo[3,4-d]pyrimidin-6-yl]phenyl}urea] | 0.194 µM | 0.6 µM | 0.225 µM | – | – |

— patent US20080234262A1 (Wyeth, priority 2007, published 2008)
